Source: publication PMC6156383 (Frontiers in Psychiatry, 2018)
Values joined by “and” are separate entries in the source; they are usually repeats but may differ in a detail not shown here. Identical values can stand only once. Counter-ions that a name gives are not always drawn.

Columns and labels:
[1] = molecular target: T1, KOP receptor (Homo sapiens, UniProt P41145); type: binding
T1 construct: expressed in transfected cells

[2] = molecular target: T2, MOP receptor (Homo sapiens, UniProt P35372); type: biochemical
T2 construct: expressed in transfected cells

[3] = molecular target: T3, NOP receptor (Homo sapiens, UniProt P41146); assay: [35S]GTPγS binding stimulation (agonist), CHO membranes; type: biochemical; settings: for NOP % stim: [35S]GTPγS stimulation relative to standard agonist N/OFQ; for EC50: [35S]GTPγS stimulation, average ± SD
T3 construct: expressed in transfected cells

[4] = molecular target: T4, DOP receptor (Homo sapiens, UniProt P41143); assay: as above; type: biochemical; settings: for DOP % stim: [35S]GTPγS stimulation relative to standard agonist DPDPE; for EC50: [35S]GTPγS stimulation, * = too little stimulation (if < 15% an EC50 was not always determined)
T4 construct: expressed in transfected cells

[5] = molecular target: T3, NOP receptor; type: binding
[6] = molecular target: T4, DOP receptor; type: binding
[7] = molecular target: T1, KOP receptor; type: biochemical
[8] = molecular target: T2, MOP receptor; type: binding
[9] = molecular target: T2, MOP receptor; assay: [35S]GTPγS antagonist assay and Schild analysis versus DAMGO; type: biochemical; settings: for Type of antagonism at MOP: Schild analysis; for MOP pA2 / MOP Ke: antagonist activity in [35S]GTPγS assay, Schild analysis versus DAMGO; for MOP Ke: unit not given
[10] = molecular target: T4, DOP receptor; assay: [35S]GTPγS antagonist assay versus DPDPE; type: biochemical
[11] = molecular target: T3, NOP receptor; assay: [35S]GTPγS antagonist assay versus N/OFQ; type: biochemical
[12] = molecular target: T1, KOP receptor; assay: [35S]GTPγS antagonist assay versus U69593; type: biochemical
[13] = system: CD1 mice; assay: Mouse tail flick assay (radiant heat, acute thermal nociception); type: in vivo

T4 sequence (P41143 whole entry): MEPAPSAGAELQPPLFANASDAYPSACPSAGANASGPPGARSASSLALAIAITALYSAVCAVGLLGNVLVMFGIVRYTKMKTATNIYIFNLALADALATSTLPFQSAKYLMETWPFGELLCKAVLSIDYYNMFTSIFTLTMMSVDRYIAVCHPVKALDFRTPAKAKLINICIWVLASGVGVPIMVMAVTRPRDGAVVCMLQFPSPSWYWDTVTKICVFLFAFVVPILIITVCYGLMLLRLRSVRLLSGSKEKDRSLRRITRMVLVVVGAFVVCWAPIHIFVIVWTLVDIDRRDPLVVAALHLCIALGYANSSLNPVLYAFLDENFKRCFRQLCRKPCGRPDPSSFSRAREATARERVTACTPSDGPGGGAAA
T2 sequence (P35372 whole entry): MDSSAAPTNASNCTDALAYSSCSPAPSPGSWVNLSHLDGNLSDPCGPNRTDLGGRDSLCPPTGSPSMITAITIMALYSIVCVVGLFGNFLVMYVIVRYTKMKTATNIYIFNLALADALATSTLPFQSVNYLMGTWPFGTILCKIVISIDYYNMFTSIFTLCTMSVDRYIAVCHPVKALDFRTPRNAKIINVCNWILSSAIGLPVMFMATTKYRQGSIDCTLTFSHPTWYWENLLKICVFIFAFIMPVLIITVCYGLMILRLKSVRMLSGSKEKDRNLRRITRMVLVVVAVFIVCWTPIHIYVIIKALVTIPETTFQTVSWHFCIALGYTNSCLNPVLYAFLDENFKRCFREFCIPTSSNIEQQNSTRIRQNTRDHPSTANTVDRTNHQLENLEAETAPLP
T3 sequence (P41146 whole entry): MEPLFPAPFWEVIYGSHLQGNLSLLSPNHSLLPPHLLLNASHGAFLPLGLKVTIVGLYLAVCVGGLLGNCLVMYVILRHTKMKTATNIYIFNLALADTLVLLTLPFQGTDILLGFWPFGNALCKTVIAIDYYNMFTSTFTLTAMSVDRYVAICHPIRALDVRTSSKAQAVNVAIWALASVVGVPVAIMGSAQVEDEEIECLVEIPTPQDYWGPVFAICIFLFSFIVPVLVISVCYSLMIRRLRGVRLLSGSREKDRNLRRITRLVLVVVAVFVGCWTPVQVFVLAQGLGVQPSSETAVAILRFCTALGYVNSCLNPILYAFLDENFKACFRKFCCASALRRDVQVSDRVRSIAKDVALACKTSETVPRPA
T1 sequence (P41145 whole entry): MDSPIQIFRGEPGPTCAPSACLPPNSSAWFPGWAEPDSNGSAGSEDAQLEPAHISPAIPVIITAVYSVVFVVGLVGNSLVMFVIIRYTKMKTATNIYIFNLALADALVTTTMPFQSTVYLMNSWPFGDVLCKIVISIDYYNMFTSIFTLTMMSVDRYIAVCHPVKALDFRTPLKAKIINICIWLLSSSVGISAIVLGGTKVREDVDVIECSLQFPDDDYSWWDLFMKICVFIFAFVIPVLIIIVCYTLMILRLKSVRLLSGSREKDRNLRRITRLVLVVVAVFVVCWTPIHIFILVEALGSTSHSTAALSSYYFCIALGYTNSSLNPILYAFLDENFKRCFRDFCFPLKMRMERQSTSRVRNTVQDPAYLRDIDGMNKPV

| SMILES | Ki [1] [nM] | EC50 [2] [nM] | MOP % stim [2] [%] | NOP % stim [3] [%] | EC50 [3] [nM] | DOP % stim [4] [%] | EC50 [4] [nM] | Ki [5] [nM] | Ki [6] [nM] | EC50 [7] [nM] | KOP % stim [7] | Ki [8] [nM] | other results |
| --- | --- | --- | --- | --- | --- | --- | --- | --- | --- | --- | --- | --- | --- |
| Cc1ccccc1CC(=O)O[C@@]12CCC(=O)[C@@H]3Oc4c(O)ccc5c4[C@@]31CCN(CC1CC1)[C@@H]2C5 [Compound 7c, 14β-(2′-methylphenylacetyl)-17-cyclopropylmethyl-7,8-dihydronoroxymorphinone] | 1.69 ± 1.2 | 2.2 ± 0.2 | 41.9 ± 1.4 | 21.1 ± 1.4 | 106 ± 32.2 | 12.6 ± 3.1 | 201 ± 59 | 44.1 ± 3.1 | 1.97 ± 0.19 | 2.9 ± 1.8 | 86% and 86.3 ± 6.5% | 3.59 ± 0.86 |  |
| O=C(Cc1ccc(Cl)cc1)O[C@@]12CCC(=O)[C@@H]3Oc4c(O)ccc5c4[C@@]31CCN(CC1CC1)C2C5 [Compound 7j, 14β-(4′-chlorophenylacetyl)-17-cyclopropylmethyl-7,8-dihydronoroxymorphinone] | 3.95 ± 0.59 |  | 8.2 ± 7.2 | 18.9 ± 2.7 | 298 ± 18.6 | 37.2 ± 0.2 |  | 51.3 ± 14 | 4.95 ± 1.1 | 5.4 ± 1.3 | 37.1 ± 0.2% | 1.78 ± 0.03 | Type of antagonism at MOP [9]: non-competitive; MOP pA2 [9]: Non-competitive |
| COc1ccccc1CC(=O)O[C@@]12CCC(=O)[C@@H]3Oc4c(O)ccc5c4[C@@]31CCN(CC1CC1)[C@@H]2C5 [Compound 7h, 14β-(2′-methoxyphenylacetyl)-17-cyclopropylmethyl-7,8-dihydronoroxymorphinone] | 3.52 ± 0.9 | 0.5 ± 0.1 | 37.3 ± 0.7 | 40.8 ± 5.4 | 479 ± 33.3 | 19.2 ± 4.9 |  | 62.3 ± 4.9 |  | 1.6 ± 0.3 | 50.4 ± 6.0% | 3.77 ± 0.9 |  |
| O=C(Cc1ccccc1)O[C@@]12CCC(=O)[C@@H]3Oc4c(O)ccc5c4[C@@]31CCN(CC1CC1)[C@@H]2C5 [Compound 7a, 14β-phenylacetyl-17-cyclopropylmethyl-7,8-dihydronoroxymorphinone] | 1.14 ± 0.46 | 3.8 ± 1.8 | 31.6 ± 4.2 | 28.1 ± 4.8 | 401 ± 161 | 30.5 ± 5.5 | 5.6 ± 0.4 | 127 ± 17 | 3.1 ± 0.6 | 1.2 ± 0.6 | 44.5 ± 13% | 0.86 ± 0.18 |  |
| O=C(Cc1ccccc1F)O[C@@]12CCC(=O)[C@@H]3Oc4c(O)ccc5c4[C@@]31CCN(CC1CC1)[C@@H]2C5 [Compound 7i, 14β-(2′-fluorophenylacetyl)-17-cyclopropylmethyl-7,8-dihydronoroxymorphinone] | 4.55 ± 0.7 | 2 ± 0.7 | 27.9 ± 2.8 | 14.5 ± 2.9 | 94.1 ± 24.7 |  |  | 69.7 ± 2.4 | 4.07 ± 0.91 | 4 ± 2 | 43.8 ± 4.7% | 2.59 ± 1.1 |  |
| Cc1cccc(CC(=O)O[C@@]23CCC(=O)[C@@H]4Oc5c(O)ccc6c5[C@@]42CCN(CC2CC2)[C@@H]3C6)c1 [Compound 7d, 14β-(3′-methylphenylacetyl)-17-cyclopropylmethyl-7,8-dihydronoroxymorphinone] | 2.8 ± 0.91 | 5.2 ± 2 | 40.1 ± 4.4 | 59.3 ± 2.4 | 855 ± 185 | 15.8 ± 0.1 | 21.3 ± 2.2 | 49.9 ± 3.5 | 5.58 ± 0.22 | 1 ± 0.3 | 46.4 ± 3.6% | 1.91 ± 0.51 |  |
| COc1ccc(CC(=O)O[C@@]23CCC(=O)[C@@H]4Oc5c(O)ccc6c5[C@@]42CCN(CC2CC2)[C@@H]3C6)cc1 [Compound 7f, 14β-(4′-methoxyphenylacetyl)-17-cyclopropylmethyl-7,8-dihydronoroxymorphinone] | 1.9 ± 0.42 |  | 7.8 ± 3.5 | 8.9 ± 1.0 | 61.8 ± 20.1 | 18.4 ± 1.3 | 59.4 ± 19.6 | 49.8 ± 7.1 | 2.56 ± 0.48 |  | 6.5 ± 3.3% | 1.08 ± 0.33 | Type of antagonism at MOP [9]: very potent competitive antagonists; MOP pA2 [9]: 10.58 ± 0.13 and 10.58 ± 0.14; MOP Ke [9]: 0.026 ± 0.008; IC50 ([9]; in the presence of 1 μM DAMGO, read-out: IC50 inhibiting DAMGO stimulation of [35S]GTPγS binding, MOP): 12.4 ± 2.25 nM; Type of inhibition at DOP ([10]; [35S]GTPγS antagonist assay): non-competitive; IC50 ([10]; [35S]GTPγS, in the presence of 1 μM DPDPE): 48.1 ± 14.1 nM; Type of inhibition at NOP ([11]; [35S]GTPγS antagonist assay): non-competitive; IC50 ([11]; [35S]GTPγS, in the presence of 100 nM N/OFQ): 5.64 µM; Type of inhibition at KOP ([12]; [35S]GTPγS antagonist assay): non-competitive; IC50 ([12]; [35S]GTPγS, in the presence of 1 μM U69593): 12.2 ± 0.11 nM; Tail flick latency versus vehicle controls ([13]; 1 mg/kg s.c.): significant increase in tail flick latency compared to vehicle controls at the 60- and 120-min time points; Effect on morphine-induced antinociception, tail flick ([13]; 1 mg/kg s.c. given 10 min before morphine, P < 0.05): morphine-induced antinociception was attenuated at the 30- and 60-min time points; Antinociception versus vehicle controls, tail flick ([13]; 3.0 mg/kg s.c.): significant antinociception at the 30- and 120-min time points; Antinociception (%MPE), tail flick ([13]; 1 and 3 mg/kg s.c., 30, 60, 120 min): low levels of antinociception |
| O=C(Cc1ccccc1Cl)O[C@@]12CCC(=O)[C@@H]3Oc4c(O)ccc5c4[C@@]31CCN(CC1CC1)[C@@H]2C5 [Compound 7k, 14β-(2′-chlorophenylacetyl)-17-cyclopropylmethyl-7,8-dihydronoroxymorphinone] | 1.34 ± 0.5 | 2.4 ± 0.6 | 39.3 ± 4.7 | 49.9 ± 0.7 | 808 ± 45.8 |  |  | 32.6 ± 2.3 | 3.24 ± 0.15 | 13.9 ± 6.4 | 31.3 ± 5.6% | 4.66 ± 1.8 |  |
| CN1CC[C@]23c4c5ccc(O)c4O[C@H]2[C@@H](O)C=C[C@H]3[C@H]1C5 [morphine, Morphine hydrochloride, reference compound] |  |  |  |  |  |  |  |  |  |  |  |  | %MPE, tail flick, positive control ([13]; 3 mg/kg, 30, 60, 120 min): anticipated increase in %MPE at all time points |
| COc1cccc(CC(=O)O[C@@]23CCC(=O)[C@@H]4Oc5c(O)ccc6c5[C@@]42CCN(CC2CC2)C3C6)c1 [Compound 7e, 14β-(3′-methoxyphenylacetyl)-17-cyclopropylmethyl-7,8-dihydronoroxymorphinone] | 1.44 ± 0.33 | 13.3 ± 2.2 | 11.3 ± 1.3 | 36.1 ± 0.3 | 374 ± 81.6 | 35.7 ± 0.7 | 9.9 ± 0.2 | 50.1 ± 2.7 | 3.61 ± 0.34 | 1.7 ± 0.4 | 46.3 ± 8.1% | 1.1 ± 0.08 |  |
| O=C(Cc1ccc2c(c1)OCO2)O[C@@]12CCC(=O)[C@@H]3Oc4c(O)ccc5c4[C@@]31CCN(CC1CC1)[C@@H]2C5 [Compound 7g, 14β-(3′,4′-dioxymethylenephenylacetyl)-17-cyclopropylmethyl-7,8-dihydronoroxymorphinone] | 1.2 ± 0.42 |  | 12.1 ± 3.7 | 43.5 ± 9.4 | 562 ± 67.5 |  |  | 94.3 ± 28 | 1.25 ± 0.2 | 5.4 ± 0.1 | 41.1 ± 0.9% | 0.99 ± 0.35 | Type of antagonism at MOP [9]: very potent competitive antagonists; MOP pA2 [9]: 10.29 ± 0.24; MOP Ke [9]: 0.051 ± 0.018 |
| Cc1ccc(CC(=O)O[C@@]23CCC(=O)[C@@H]4Oc5c(O)ccc6c5[C@@]42CCN(CC2CC2)[C@@H]3C6)cc1 [Compound 7b, 14β-(4′-methylphenylacetyl)-17-cyclopropylmethyl-7,8-dihydronoroxymorphinone] | 1.56 ± 0.28 | 1.6 ± 0.9 | 34.9 ± 2.0 | 22.3 ± 1.4 | 169 ± 3.4 | 27.0 ± 4.8 | 3.8 ± 1.1 | 36.3 ± 4.2 | 1.7 ± 0.2 | 6.3 ± 2.2 | 11.5 ± 2.7% | 1.87 ± 0.09 |  |
